Experimental data as given in ChEMBL document CHEMBL1201862, “PubChem BioAssay data set” (2004).
Active and inactive are the calls of the source.

What was measured:
Bcl-2-like protein 10 = molecular target: T1, Bcl-2-like protein 10 (Homo sapiens, UniProt Q9HD36); assay: displacers of TR3 peptide from Bcl-B, primary screen, selectivity assay for Bfl-1 inhibitor project, biochemical, fluorescence polarization, FITC-TR3 peptide (AID 748);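 also: fluorescence polarization from a fluorescein-labelled TR3 peptide binding purified Bcl-B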
T1 sequence (Q9HD36 whole entry): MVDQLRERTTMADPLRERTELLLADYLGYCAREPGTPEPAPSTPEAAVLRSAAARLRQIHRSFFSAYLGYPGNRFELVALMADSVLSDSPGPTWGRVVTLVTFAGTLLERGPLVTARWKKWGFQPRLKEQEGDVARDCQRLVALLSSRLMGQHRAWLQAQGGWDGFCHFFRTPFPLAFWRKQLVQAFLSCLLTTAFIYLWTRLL

Large T antigen = Large T antigen (Simian virus 40, UniProt P03070); assay type: functional, Betapolyomavirus macacae;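 also: Confirmatory-stage PubChem screen for compounds that inhibit SV40 T antigen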
Large T antigen, sequence (P03070 whole entry, the tested form may be a part): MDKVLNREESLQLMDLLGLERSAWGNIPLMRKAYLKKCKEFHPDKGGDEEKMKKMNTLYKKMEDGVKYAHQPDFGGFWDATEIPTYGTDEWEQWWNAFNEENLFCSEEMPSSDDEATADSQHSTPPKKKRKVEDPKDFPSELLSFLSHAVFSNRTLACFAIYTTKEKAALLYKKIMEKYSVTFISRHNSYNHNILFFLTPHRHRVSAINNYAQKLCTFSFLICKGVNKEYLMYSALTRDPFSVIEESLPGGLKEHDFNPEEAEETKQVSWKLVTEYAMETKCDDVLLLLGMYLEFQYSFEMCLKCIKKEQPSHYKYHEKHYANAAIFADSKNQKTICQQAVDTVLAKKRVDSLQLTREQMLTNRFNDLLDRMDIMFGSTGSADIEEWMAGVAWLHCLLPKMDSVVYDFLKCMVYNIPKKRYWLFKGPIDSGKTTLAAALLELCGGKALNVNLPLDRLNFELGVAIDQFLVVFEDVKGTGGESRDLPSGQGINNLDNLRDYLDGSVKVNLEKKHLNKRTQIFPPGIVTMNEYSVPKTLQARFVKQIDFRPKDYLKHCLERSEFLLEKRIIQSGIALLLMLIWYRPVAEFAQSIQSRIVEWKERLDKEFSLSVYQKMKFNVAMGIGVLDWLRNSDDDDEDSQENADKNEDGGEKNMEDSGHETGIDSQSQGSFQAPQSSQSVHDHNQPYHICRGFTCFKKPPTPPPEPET

[1] = molecular target: T2, Carboxy-terminal domain RNA polymerase II polypeptide A small phosphatase 1 (Homo sapiens, UniProt Q9GZU7); assay: inhibitors of CTDSP1, concentration-response testing, biochemical assay, absorbance-based, actives from ultra-high-throughput screening (AID 540297); assay type: functional
T2 sequence (Q9GZU7 whole entry): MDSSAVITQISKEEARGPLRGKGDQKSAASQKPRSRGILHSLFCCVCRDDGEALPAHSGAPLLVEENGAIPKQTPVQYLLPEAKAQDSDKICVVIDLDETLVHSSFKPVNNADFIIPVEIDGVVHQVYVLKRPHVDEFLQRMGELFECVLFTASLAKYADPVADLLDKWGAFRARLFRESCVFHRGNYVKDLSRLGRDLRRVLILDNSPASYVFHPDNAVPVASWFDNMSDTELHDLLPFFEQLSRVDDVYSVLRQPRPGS

Genome polyprotein = Genome polyprotein (dengue virus type 2, UniProt P29990); assay: Dengue-2 NS5 methyltransferase inhibitors, primary screen, biochemical, confirmation dose response (AID 588689); assay type: functional
Genome polyprotein, sequence (P29990 2492-3391 limits assumed): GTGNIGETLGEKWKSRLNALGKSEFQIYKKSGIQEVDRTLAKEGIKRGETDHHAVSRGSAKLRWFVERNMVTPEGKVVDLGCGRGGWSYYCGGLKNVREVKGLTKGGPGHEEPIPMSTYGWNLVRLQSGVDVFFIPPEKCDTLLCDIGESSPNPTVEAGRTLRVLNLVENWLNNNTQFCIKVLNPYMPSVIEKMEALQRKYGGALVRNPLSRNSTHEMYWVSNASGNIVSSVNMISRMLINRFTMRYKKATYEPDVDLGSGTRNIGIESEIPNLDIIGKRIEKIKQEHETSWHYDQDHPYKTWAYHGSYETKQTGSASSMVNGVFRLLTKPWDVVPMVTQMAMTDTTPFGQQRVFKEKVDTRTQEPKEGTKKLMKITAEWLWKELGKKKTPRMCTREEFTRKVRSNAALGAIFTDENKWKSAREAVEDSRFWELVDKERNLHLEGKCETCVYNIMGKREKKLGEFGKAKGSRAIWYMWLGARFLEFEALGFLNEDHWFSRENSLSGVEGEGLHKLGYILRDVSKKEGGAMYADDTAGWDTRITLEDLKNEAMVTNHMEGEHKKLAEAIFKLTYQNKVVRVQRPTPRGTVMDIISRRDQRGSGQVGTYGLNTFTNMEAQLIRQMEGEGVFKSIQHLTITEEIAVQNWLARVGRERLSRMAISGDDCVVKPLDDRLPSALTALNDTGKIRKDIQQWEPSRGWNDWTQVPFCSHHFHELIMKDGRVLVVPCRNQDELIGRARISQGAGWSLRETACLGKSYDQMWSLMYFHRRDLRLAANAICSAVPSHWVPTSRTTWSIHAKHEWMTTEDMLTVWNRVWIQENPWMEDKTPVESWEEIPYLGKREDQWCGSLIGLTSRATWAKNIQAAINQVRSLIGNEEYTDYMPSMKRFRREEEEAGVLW

Beta-galactosidase = Beta-galactosidase (Escherichia coli, UniProt Q8VNN2); assay: beta-galactosidase enzyme inhibitors and activators, dose response, artefact control for CCR6 antagonist project, biochemical, E. coli enzyme, set 3 (AID 504712); assay type: functional
Beta-galactosidase, sequence (Q8VNN2 whole entry): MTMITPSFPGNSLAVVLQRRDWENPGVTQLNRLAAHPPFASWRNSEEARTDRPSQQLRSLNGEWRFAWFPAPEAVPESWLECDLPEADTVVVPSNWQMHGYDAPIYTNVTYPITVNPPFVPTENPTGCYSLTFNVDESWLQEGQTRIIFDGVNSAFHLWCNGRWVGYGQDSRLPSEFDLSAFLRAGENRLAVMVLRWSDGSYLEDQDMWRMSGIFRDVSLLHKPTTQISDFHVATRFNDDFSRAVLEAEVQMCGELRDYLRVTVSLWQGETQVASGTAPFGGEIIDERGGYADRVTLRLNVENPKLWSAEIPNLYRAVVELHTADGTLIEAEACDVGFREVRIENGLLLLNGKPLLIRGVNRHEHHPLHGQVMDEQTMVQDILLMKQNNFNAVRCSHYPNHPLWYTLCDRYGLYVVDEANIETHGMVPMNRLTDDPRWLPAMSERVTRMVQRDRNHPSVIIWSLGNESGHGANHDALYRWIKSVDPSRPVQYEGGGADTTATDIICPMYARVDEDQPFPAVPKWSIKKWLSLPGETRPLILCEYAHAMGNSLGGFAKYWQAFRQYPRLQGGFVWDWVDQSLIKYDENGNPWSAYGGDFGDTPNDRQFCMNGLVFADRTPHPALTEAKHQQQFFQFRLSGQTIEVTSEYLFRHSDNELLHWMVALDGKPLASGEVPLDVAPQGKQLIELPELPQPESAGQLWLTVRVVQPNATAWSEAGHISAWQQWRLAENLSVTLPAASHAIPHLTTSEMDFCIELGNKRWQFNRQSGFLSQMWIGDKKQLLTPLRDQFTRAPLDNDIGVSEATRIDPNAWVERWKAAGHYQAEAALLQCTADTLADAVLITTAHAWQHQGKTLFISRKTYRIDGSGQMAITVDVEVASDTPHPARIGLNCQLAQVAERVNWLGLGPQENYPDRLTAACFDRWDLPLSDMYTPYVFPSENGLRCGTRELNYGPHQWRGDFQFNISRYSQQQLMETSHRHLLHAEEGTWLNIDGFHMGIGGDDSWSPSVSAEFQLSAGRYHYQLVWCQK

[2] = inhibitors of intracellular T. cruzi replication, confirmation, NIH3T3 host cells, beta-gal luminescence (AID 2044); assay type: functional, cell-based;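 also: intracellular parasites grown in NIH/3T3 mouse fibroblasts as host cells; luminescent beta-galactosidase reporter signal from transgenic T. cruzi replicating inside host cells; inhibitors lower the luminescence signal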
[3] = insulin promoter down-regulators in MIN6 cells, imaging, high-content screening, mouse beta cells (AID 1628); assay type: functional
[4] = cytotoxicity toward NIH3T3 fibroblasts, dose response, counter-screen, cell-based, ATP luminescence, mouse fibroblasts (AID 2010); assay type: functional;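 also: cells exposed to compound for about 90 hours before reading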
[5] = cytotoxicity in MIN6 insulinoma cells, dose response, cytotoxicity control, cell-based, mouse insulinoma (AID 2122); assay type: functional;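 also: confirmatory high-throughput counterscreen run to flag cytotoxic compounds; mouse MIN-6 beta cells carrying an insulin promoter eGFP reporter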
cells = assay type: functional
[6] = molecular target: T3, Zinc finger protein mex-5 (Caenorhabditis elegans, UniProt Q9XUB2); assay: MEX-5/TCR-2 RNA interaction inhibitors, dose response, biochemical, C. elegans, fluorescence polarization (AID 1960)
T3 sequence (Q9XUB2 whole entry): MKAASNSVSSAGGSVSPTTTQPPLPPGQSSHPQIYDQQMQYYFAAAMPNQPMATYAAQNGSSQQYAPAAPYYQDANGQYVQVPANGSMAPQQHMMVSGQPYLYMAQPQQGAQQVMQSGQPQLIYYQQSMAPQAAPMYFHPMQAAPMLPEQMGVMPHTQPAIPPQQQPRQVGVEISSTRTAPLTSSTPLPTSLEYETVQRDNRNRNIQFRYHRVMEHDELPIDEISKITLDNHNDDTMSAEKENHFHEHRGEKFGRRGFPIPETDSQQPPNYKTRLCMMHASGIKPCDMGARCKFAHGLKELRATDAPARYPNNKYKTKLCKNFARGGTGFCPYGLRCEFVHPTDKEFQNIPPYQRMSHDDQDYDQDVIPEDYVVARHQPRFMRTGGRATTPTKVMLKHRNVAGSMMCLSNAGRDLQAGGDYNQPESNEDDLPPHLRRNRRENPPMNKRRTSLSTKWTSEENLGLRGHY

[7] = HepG2 cell cytotoxicity, dose response, cytotoxicity control for non-replicating M. tuberculosis project (AID 489018); assay type: functional; conditions: Mycobacterium tuberculosis
[8] = molecular target: T4, RNA-binding protein pos-1 (Caenorhabditis elegans, UniProt G5EF15); assay: inhibitors of POS-1/mex-3 RNA binding, dose response, biochemical, fluorescence polarization (AID 1964);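 also: purified POS-1 fused to maltose binding protein made in E. coli; potency of compounds blocking POS-1 binding to fluorescent RNA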
T4 sequence (G5EF15 whole entry): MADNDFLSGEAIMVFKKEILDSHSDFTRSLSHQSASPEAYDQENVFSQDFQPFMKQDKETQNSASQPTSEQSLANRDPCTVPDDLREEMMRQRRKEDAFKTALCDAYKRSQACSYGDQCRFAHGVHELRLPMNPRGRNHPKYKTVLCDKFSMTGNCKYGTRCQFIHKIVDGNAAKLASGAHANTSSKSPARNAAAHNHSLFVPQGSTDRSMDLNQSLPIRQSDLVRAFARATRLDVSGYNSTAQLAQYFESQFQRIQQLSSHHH

[9] = Vero E6 cell cytotoxicity, dose response, cytotoxicity control for non-replicating M. tuberculosis project, secondary assay (AID 492998); assay type: functional, VeroE6; conditions: Vero C1008
[10] = THP-1 cell cytotoxicity, dose response, cytotoxicity control for non-replicating M. tuberculosis project (AID 489025); assay type: functional
X-box-binding protein 1 = molecular target: T5, X-box-binding protein 1 (Homo sapiens, UniProt P17861); assay type: functional, Cricetulus griseus;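 also: confirmatory dose-response counter-screen serving a CHOP assay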
T5 sequence (P17861 whole entry): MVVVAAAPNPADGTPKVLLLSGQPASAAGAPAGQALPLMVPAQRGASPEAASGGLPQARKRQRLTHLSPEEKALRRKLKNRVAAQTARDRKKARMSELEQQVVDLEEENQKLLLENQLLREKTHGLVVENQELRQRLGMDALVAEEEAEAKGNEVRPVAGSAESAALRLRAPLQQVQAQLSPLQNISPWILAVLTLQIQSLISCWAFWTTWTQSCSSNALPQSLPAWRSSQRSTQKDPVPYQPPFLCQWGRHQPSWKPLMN

[11] = microbe, parasite or virus in culture; assay type: functional; conditions: Mycobacterium tuberculosis
[12] = molecular target: T6, Ubiquitin-conjugating enzyme E2 N (Homo sapiens, UniProt P61088); assay type: functional;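 also: Dose-response confirmation in a TR-FRET assay detecting UBC13-driven polyubiquitin chain formation, inhibition measured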
T6 sequence (P61088 whole entry): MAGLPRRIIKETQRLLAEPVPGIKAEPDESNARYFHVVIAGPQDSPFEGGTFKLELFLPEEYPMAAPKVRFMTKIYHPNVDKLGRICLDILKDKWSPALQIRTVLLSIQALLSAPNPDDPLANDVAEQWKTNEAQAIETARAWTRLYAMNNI

Escherichia coli = assay: microbe, parasite or virus in culture
[13] = molecular target: T7, Short transient receptor potential channel 4 (Mus musculus, UniProt Q9QUQ5); assay: mouse TRPC4 channel activators, dose response, cell-based, HEK293 TRPC4/mu-opioid, Fluo-4 calcium (AID 434937); assay type: functional
T7 sequence (Q9QUQ5 whole entry): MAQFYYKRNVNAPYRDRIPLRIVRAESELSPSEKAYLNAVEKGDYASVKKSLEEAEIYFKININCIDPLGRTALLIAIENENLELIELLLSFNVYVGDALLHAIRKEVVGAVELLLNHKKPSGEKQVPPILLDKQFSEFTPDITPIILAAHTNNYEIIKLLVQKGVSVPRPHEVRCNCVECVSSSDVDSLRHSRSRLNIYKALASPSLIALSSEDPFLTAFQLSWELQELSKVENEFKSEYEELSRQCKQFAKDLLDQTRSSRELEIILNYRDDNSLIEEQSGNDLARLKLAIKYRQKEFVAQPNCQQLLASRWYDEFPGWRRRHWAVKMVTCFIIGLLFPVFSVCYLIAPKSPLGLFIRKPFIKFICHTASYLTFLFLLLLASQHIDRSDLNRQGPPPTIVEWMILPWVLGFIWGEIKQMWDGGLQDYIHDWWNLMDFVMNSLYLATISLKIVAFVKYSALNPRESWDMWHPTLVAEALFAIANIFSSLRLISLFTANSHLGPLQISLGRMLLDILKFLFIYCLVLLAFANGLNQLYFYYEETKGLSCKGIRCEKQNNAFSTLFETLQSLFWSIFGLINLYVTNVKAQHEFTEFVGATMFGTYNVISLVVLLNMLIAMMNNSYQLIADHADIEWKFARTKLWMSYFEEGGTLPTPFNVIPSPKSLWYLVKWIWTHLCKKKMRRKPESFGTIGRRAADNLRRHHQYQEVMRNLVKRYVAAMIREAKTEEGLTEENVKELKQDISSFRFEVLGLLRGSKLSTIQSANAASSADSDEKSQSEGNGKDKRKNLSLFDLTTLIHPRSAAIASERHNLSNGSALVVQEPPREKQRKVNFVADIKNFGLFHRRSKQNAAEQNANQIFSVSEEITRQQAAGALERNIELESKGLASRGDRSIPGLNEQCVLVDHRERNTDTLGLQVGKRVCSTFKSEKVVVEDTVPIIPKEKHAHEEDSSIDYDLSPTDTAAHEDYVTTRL

[14] = molecular target: T7, Short transient receptor potential channel 4; assay: mouse TRPC4 channel inhibitors, dose response, cell-based, HEK293 TRPC4/mu-opioid, Fluo-4 calcium (AID 434942); assay type: functional;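 also: potency of inhibitors blocking the TRPC4 calcium response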
[15] = molecular target: Glucose-6-phosphate 1-dehydrogenase (Homo sapiens, UniProt P11413); assay: human G6PD enzyme inhibitors, dose response, selectivity assay for P. falciparum G6PD inhibitor project, biochemical, fluorescence (AID 504792); assay type: functional
Glucose-6-phosphate 1-dehydrogenase, sequence (P11413 whole entry): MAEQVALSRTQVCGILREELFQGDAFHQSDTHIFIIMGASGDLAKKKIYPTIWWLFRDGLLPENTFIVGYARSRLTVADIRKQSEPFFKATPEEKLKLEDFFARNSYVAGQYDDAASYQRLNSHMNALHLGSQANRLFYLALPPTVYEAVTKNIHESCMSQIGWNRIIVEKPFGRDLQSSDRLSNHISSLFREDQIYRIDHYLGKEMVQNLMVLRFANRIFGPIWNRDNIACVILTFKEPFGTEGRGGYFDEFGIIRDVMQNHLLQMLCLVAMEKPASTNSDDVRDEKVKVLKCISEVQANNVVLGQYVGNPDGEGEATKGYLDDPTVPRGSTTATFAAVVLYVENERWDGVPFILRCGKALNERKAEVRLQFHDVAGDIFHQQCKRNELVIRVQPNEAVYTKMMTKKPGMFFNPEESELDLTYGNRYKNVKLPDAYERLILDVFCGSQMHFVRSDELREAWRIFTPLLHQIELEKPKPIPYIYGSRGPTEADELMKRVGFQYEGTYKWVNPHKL

Protein skinhead-1 = molecular target: T8, Protein skinhead-1 (Caenorhabditis elegans, UniProt P34707); assay type: functional
T8 sequence (P34707 whole entry): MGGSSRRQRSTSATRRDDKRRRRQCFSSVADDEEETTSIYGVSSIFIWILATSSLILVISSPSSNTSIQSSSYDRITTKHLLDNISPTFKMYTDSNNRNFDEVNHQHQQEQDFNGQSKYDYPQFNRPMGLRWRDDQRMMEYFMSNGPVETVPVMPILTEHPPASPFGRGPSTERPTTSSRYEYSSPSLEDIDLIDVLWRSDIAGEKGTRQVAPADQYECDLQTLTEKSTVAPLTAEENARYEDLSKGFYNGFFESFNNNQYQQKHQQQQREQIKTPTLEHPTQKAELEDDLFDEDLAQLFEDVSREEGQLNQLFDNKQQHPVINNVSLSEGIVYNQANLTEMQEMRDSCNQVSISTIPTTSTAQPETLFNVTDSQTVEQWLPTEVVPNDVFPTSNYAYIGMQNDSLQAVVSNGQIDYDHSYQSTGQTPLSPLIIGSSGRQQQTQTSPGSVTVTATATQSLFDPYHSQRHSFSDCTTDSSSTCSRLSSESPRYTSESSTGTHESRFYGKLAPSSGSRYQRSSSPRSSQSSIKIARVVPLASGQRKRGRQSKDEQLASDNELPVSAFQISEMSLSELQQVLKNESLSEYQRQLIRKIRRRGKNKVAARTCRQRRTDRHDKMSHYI

[16] = NIH-3T3 fibroblast cytotoxicity, dose response, cytotoxicity control, cell-based, fluorescence, Alamar Blue, secondary assay (AID 2327); assay type: functional;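 also: NIH-3T3 mouse fibroblasts cultured with fluconazole at 8 µg/mL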
[17] = C. albicans growth with fluconazole, confirmation, fluorescence, retest (AID 2467); assay type: functional, cell-based

O=c1c2cc(N3CCOCC3)ccc2[nH]c(=S)n1CCCN1CCCCCC1
IC50 (Bcl-2-like protein 10): 88 µM (inactive)

Nc1ccc(OCC(O)C[n+]2ccc(CCS(=O)(=O)[O-])cc2)cc1 (stereo unspecified)
IC50 (Large T antigen): 17.9 µM (active)

O=C(CN1C(=O)/C(=C2/SC(=S)N(CCS(=O)(=O)O)C2=O)c2ccccc21)Nc1cccc(C(F)(F)F)c1
IC50 [1]: 2.41 µM (active) | IC50 (Genome polyprotein): 35.3 µM (active) | IC50 (Beta-galactosidase): > 66.6 µM (inactive)

COc1cccc(CNC(=O)CN2CCC(c3nc4cc(C)ccc4[nH]3)CC2)c1
EC50 [2]: 0.217 µM (active) | IC50 [3]: 2 µM (active) | EC50 [4]: > 60 µM (not active) | IC50 [5]: 15 µM (inactive)

C=CCn1c(SCc2cc(=O)n3ccsc3n2)nnc1C1CCCCC1
IC50 (Bcl-2-like protein 10): 61.5 µM (inactive)

Cc1cnc(C(=O)NNC(=O)c2ccc(Br)cc2)cn1
IC50 (cells): 23.2 µM (active) | EC50 [6]: 9.68 µM (active) | CC50 [7]: > 20 µM (active) | EC50 [8]: > 300 µM (not active) | CC50 [9]: 14.6 µM (active) | CC50 [10]: 26.3 µM (active)

CC1=CC(C)(C)N(C(=O)c2ccc(F)cc2)c2cc3c(cc21)OCO3
Absolute IC50 (XBP1) (X-box-binding protein 1): 10 µM

COC(=O)c1c(N=C(S)NN2CCN(C)CC2)sc2c1CCC(C)C2 (stereo unspecified)
CC50 [11]: 11.6 µM (active) | IC50 [3]: 4.04 µM (active) | IC50 [12]: > 20 µM (inactive) | IC50 [5]: 3.07 µM (active)

COc1ccc(Nc2nc(NCCO)nc(OC)n2)cc1
AC50 (Escherichia coli): 25.5 µM (active)

CCCN1CCN(C(=O)Cn2c(=O)oc3cc(S(=O)(=O)NCc4ccccc4)ccc32)CC1
EC50 [13]: 4.22 µM (active)

CN(C)C(CNC(=O)c1ccc2c(c1)S(=O)(=O)c1ccccc1C2=O)c1ccco1 (stereo unspecified)
EC50 [14]: 4.73 µM (active) | EC50 [13]: 0.668 µM (active)

CCOC(=O)CSc1nnc(NC(=O)c2cccc([N+](=O)[O-])c2)s1
IC50 [15]: 43.8 µM (inactive)

CCN(CC)Cc1ccc(NC(=O)c2sc3cc(Cl)ccc3c2Cl)cc1
IC50 (cells): 32.9 µM (active) | IC50 (Protein skinhead-1): 26.3 µM (active) | EC50 [16]: 16.8 µM (inconclusive) | CC50 [7]: 11.7 µM (active) | EC50 [17]: 3.87 µM (active) | CC50 [9]: 18.9 µM (active) | CC50 [10]: 19.9 µM (active)

COc1cc(NCCCn2cnc(C(=O)Nc3ccc(C)c(C)c3)n2)cc(OC)c1OC
IC50 [15]: > 80 µM (inactive)

O=[N+]([O-])c1ccc(-c2nn(-c3ccccc3)cc2/C=N/n2c(S)nnc2-c2cccs2)cc1
Absolute IC50 (XBP1) (X-box-binding protein 1): 10 µM

C/C(=N/NC(=S)Nc1ccccc1)c1ccc2c(c1)OCO2
IC50 (Beta-galactosidase): > 66.6 µM (inactive)

C/C(=N\Nc1nc2ccccc2[nH]1)c1cc2ccccc2o1
IC50 (cells): 1.28 µM (active) | CC50 [9]: > 20 µM (active) | CC50 [10]: > 40 µM (active)

COc1cc(/C=N/NC(=O)NC2CCCCC2)ccc1O
IC50 (Large T antigen): 7.16 µM (active)

Cc1ccc(-c2c(C(=O)N/N=C/c3cccs3)nnn2-c2nonc2N)cc1
IC50 [15]: > 80 µM (inactive)
